Experimental data as given in PubChem BioAssay AID256 (DTP/NCI, 2004).
Where “and” joins values, the source holds several entries; their conditions need not be identical. Identical values can stand only once. Inconclusive results and toxic doses are left out. Rule for the calls: active = survival T/C of 150% or more; inactive = T/C below 125% in these data.

System: CD2F1 mice, L1210 leukemia ip, survival T/C
Test: NCI In Vivo Anticancer Drug Screen. Data for tumor model L1210 Leukemia (intraperitoneal) in CD2F1 (CDF1) mice
Conditions: endpoint: mean survival time, higher = longer survival
Outline: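 Transplantable tumor in mice; compound-treated vs vehicle-treated groups. Read-out = treated/control ratio of the measured endpoint.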

[1] = dose: 12.5 mg/kg/injection, schedule: Q01DX009 (ip), vehicle: saline with Tween-80
[2] = dose: 25.0 mg/kg/injection, schedule: Q01DX009 (ip), vehicle: saline with Tween-80
[3] = dose: 50.0 mg/kg/injection, schedule: Q01DX009 (ip), vehicle: saline with Tween-80
[4] = dose: 100.0 mg/kg/injection, schedule: Q01DX009 (ip), vehicle: saline with Tween-80
[5] = dose: 200.0 mg/kg/injection, schedule: Q01DX009 (ip), vehicle: saline with Tween-80
[6] = dose: 400.0 mg/kg/injection, schedule: Q01DX009 (ip), vehicle: saline with Tween-80
[7] = dose: 100.0 mg/kg/injection, schedule: Q04DX003 (ip), vehicle: saline with Tween-80
[8] = dose: 75.0 mg/kg/injection, schedule: Q01DX001 (ip), vehicle: saline
[9] = dose: 200.0 mg/kg/injection, schedule: Q04DX003 (ip), vehicle: saline with Tween-80
[10] = dose: 400.0 mg/kg/injection, schedule: Q04DX003 (ip), vehicle: saline with Tween-80
[11] = dose: 100.0 mg/kg/injection, schedule: Q04DX003 (ip), vehicle: saline
[12] = dose: 200.0 mg/kg/injection, schedule: Q04DX003 (ip), vehicle: saline
[13] = dose: 400.0 mg/kg/injection, schedule: Q04DX003 (ip), vehicle: saline

Measured: T/C

NNc1ncnc2c1ccn2C1OC(CO)C(O)C1O (stereo unspecified)
inactive: dose: 35.0 mg/kg/injection, schedule: Q01DX001 (ip), vehicle: saline 116 % of control | dose: 53.0 mg/kg/injection, schedule: Q01DX001 (ip), vehicle: saline 110 % of control | dose: 80.0 mg/kg/injection, schedule: Q01DX001 (ip), vehicle: saline 112 % of control | dose: 120.0 mg/kg/injection, schedule: Q01DX001 (ip), vehicle: saline 116 % of control

Cc1ncc([N+](=O)[O-])n1CCSC(N)=O
inactive: [1] 103 % of control | [2] 96 % of control | [3] 102 % of control | [4] 100 % of control | [5] 100 % of control | [6] 100 % of control

CC(C)(C)C(=O)C#Cc1ccccc1
inactive: dose: 25.0 mg/kg/injection, schedule: Q01DX009 (ip), vehicle: saline 94 % of control | dose: 50.0 mg/kg/injection, schedule: Q01DX009 (ip), vehicle: saline 97 % of control

CC(C)(C)OC(=O)N1CCCC1C(=O)Oc1ccc([N+](=O)[O-])cc1 (stereo unspecified)
inactive: dose: 25.0 mg/kg/injection, schedule: Q04DX003 (ip), vehicle: saline with Tween-80 98 % of control | dose: 50.0 mg/kg/injection, schedule: Q04DX003 (ip), vehicle: saline with Tween-80 95 % of control | [7] 92 % of control and 93 % of control

Nc1nc2c(ncn2C2CC(O)C(CO)O2)c(=O)n1N (stereo unspecified)
inactive: [8] 97 % of control | dose: 150.0 mg/kg/injection, schedule: Q01DX001 (ip), vehicle: saline 100 % of control

CN(C)c1ncnc2c1cnn2C1OC(CO)C(O)C1O (stereo unspecified)
inactive: dose: 12.5 mg/kg/injection, schedule: Q01DX005 (ip), vehicle: water 93 % of control | dose: 25.0 mg/kg/injection, schedule: Q01DX005 (ip), vehicle: water 90 % of control | dose: 50.0 mg/kg/injection, schedule: Q01DX005 (ip), vehicle: water 107 % of control | dose: 100.0 mg/kg/injection, schedule: Q01DX005 (ip), vehicle: water 100 % of control | dose: 200.0 mg/kg/injection, schedule: Q01DX005 (ip), vehicle: water 100 % of control

O=C([O][Sb]([O]C(=O)C(Cl)(Cl)Cl)([c]1ccccc1)([c]1ccccc1)[c]1ccccc1)C(Cl)(Cl)Cl
inactive: [7] 100 % of control | [9] 93 % of control | [10] 93 % of control

CCC[CH2][Sn]([CH2]CC)([CH2]CCC)[O]C(=O)c1ccccc1
inactive: dose: 0.78 mg/kg/injection, schedule: Q01DX009 (ip), vehicle: saline with Tween-80 104 % of control | dose: 1.56 mg/kg/injection, schedule: Q01DX009 (ip), vehicle: saline with Tween-80 107 % of control

Cc1ccc(NC(=O)c2ccccc2Cl)cc1C
inactive: [7] 97 % of control | [9] 103 % of control | [10] 93 % of control

CCCCC(C(=O)OCC)C1=NC(C)(C)CC(C)O1 (stereo unspecified)
inactive: dose: 100.0 mg/kg/injection, schedule: Q01DX009 (ip), vehicle: saline 98 % of control | dose: 100.0 mg/kg/injection, schedule: Q04DX003 (ip), vehicle: acetone 101 % of control | dose: 200.0 mg/kg/injection, schedule: Q01DX009 (ip), vehicle: saline 97 % of control | dose: 200.0 mg/kg/injection, schedule: Q04DX003 (ip), vehicle: acetone 90 % of control | dose: 400.0 mg/kg/injection, schedule: Q01DX009 (ip), vehicle: saline 97 % of control | dose: 400.0 mg/kg/injection, schedule: Q04DX003 (ip), vehicle: acetone 91 % of control

C=CCCCCCCCCC(=O)NCCN1CCOCC1
inactive: [3] 100 % of control | [4] 96 % of control | [5] 88 % of control

CCCCCC(C)O[Si](C)OCC (stereo unspecified)
inactive: [11] 96 % of control | [12] 106 % of control | [13] 108 % of control

O=C1OCC/C1=C\c1cccc2ccccc12
inactive: [7] 102 % of control | [9] 96 % of control | [10] 97 % of control

CNC
inactive: dose: 100.0 mg/kg/injection, schedule: Q04DX002 (ip), vehicle: saline 86 % of control

CCN(CC)C(=O)c1ccncc1
inactive: [11] 101 % of control | [12] 104 % of control | [13] 101 % of control

CCC(O)C(C)(C)[N+](=O)[O-] (stereo unspecified)
inactive: dose: 5.0 mg/kg/injection, schedule: Q01DX009 (ip), vehicle: saline 95 % of control | dose: 10.0 mg/kg/injection, schedule: Q01DX009 (ip), vehicle: saline 98 % of control | dose: 20.0 mg/kg/injection, schedule: Q01DX009 (ip), vehicle: saline 98 % of control

CC(=O)Nc1ccccc1C(C)=O
inactive: [4] 110 % of control | [5] 109 % of control

Cc1ccc(P(=S)(c2ccccc2)c2ccc(C)c3ccccc23)c2ccccc12
inactive: dose: 100.0 mg/kg/injection, schedule: Q01DX001 (ip), vehicle: saline 97 % of control | dose: 200.0 mg/kg/injection, schedule: Q01DX001 (ip), vehicle: saline 91 % of control | dose: 400.0 mg/kg/injection, schedule: Q01DX001 (ip), vehicle: saline 93 % of control

O=c1[nH]c2ccccc2c(=O)c2ccccc12
inactive: [4] 90 % of control | [7] 101 % of control | [5] 94 % of control | [9] 97 % of control | [6] 107 % of control | [10] 101 % of control

NCC(=O)NCC(=O)OCCO
inactive: dose: 50.0 mg/kg/injection, schedule: Q01DX009 (ip), vehicle: water 97 % of control | dose: 100.0 mg/kg/injection, schedule: Q01DX009 (ip), vehicle: water 93 % of control | dose: 200.0 mg/kg/injection, schedule: Q01DX009 (ip), vehicle: water 91 % of control | dose: 400.0 mg/kg/injection, schedule: Q01DX009 (ip), vehicle: water 90 % of control

C=Cc1ccncc1
inactive: [1] 91 % of control | [2] 95 % of control | [3] 98 % of control

OCN(CO)c1nc(N(CO)CO)nc(N(CO)CO)n1
inactive: dose: 6.3 mg/kg/injection, schedule: Q01DX009 (ip), vehicle: saline with Tween-80 92 % of control | [1] 96 % of control | [2] 87 % of control

C=Cc1ccc(Oc2ccccc2)cc1
inactive: [7] 93 % of control | [9] 97 % of control | [10] 90 % of control

CCOC(=O)S(=O)(=O)c1ccc(C)cc1
inactive: dose: 100.0 mg/kg/injection, schedule: Q01DX009 (ip), vehicle: acetone 101 % of control | dose: 200.0 mg/kg/injection, schedule: Q01DX009 (ip), vehicle: acetone 109 % of control | dose: 400.0 mg/kg/injection, schedule: Q01DX009 (ip), vehicle: acetone 114 % of control

CC(=O)CC(=O)C1CCC(C(=O)CC(C)=O)CC1 (stereo unspecified)
inactive: [7] 95 % of control | [9] 91 % of control

NC(=O)C(NCc1ccccc1)c1ccccc1 (stereo unspecified)
inactive: [7] 94 % of control | [9] 99 % of control

Clc1ccc(CN2COc3c(ccc4cccnc34)C2)cc1Cl
inactive: [1] 95 % of control and 97 % of control | [2] 92 % of control and 105 % of control | [3] 94 % of control and 105 % of control | [4] 103 % of control and 110 % of control | [5] 95 % of control | [6] 94 % of control

Oc1ccc(O)cc1
inactive: dose: 33.0 mg/kg/injection, schedule: Q01DX009 (ip), vehicle: saline 102 % of control and 103 % of control | [8] 107 % of control | dose: 75.0 mg/kg/injection, schedule: Q01DX009 (ip), vehicle: saline 120 % of control | dose: 113.0 mg/kg/injection, schedule: Q01DX009 (ip), vehicle: saline 96 % of control

O=C(O)c1ccccc1S(=O)(=O)c1ccccc1
inactive: [7] 93 % of control | [9] 88 % of control | [10] 95 % of control
